Data reported in the RepoRT retention time repository (doi:10.1016/j.jchromb.2020.122105).

Columns and labels:
Details in all cases: stereoisomer not certain
[1] = RP, Waters CORTECS T3, 100 × 2.1 mm, 2.7 µm, 0.3 mL/min, estimated dead time 0.73 min; A: water + 0.1% formic acid, pH 3; B: methanol + 0.1% formic acid, pH 3; gradient (min/%B) 0/5 5/5 25/100 30/100 30.1/5 35/5
[2] = RP, Waters ACQUITY UPLC BEH C18, 100 × 2.1 mm, 1.7 µm, 0.1 mL/min, estimated dead time 2.2 min; A: water + 0.1% formic acid, pH 3; B: methanol + 0.1% formic acid, pH 3; gradient (min/%B) 0/5 5/5 25/95 25.1/100 35/100 35.1/5 45/5
[3] = HILIC, Merck SeQuant ZIC-HILIC, 150 × 2.1 mm, 5 µm, 0.75 mL/min, estimated dead time 0.44 min; A: water + 0.1% acetic acid + 10 mM ammonium acetate, pH 4; B: 5% water + 95% acetonitrile + 0.1% acetic acid + 10 mM ammonium acetate, pH 4; gradient (min/%B) 0/95 5/95 20/57 25/57 30/95 40/95
[4] = RP, Waters CORTECS T3, 100 × 2.1 mm, 2.7 µm, 0.2 mL/min, estimated dead time 1.1 min; A: water + 0.1% formic acid, pH 3; B: methanol + 0.1% formic acid, pH 3; gradient (min/%B) 0/0 1/0 6/5 30/100 35/100 35.1/0 40/0
[5] = RP, Waters CORTECS T3, 100 × 2.1 mm, 2.7 µm, 0.15 mL/min, estimated dead time 1.5 min; A: water + 0.1% formic acid, pH 3; B: methanol + 0.1% formic acid, pH 3; gradient (min/%B) 0/0 1/0 6/5 30/100 35/100 35.1/0 40/0
[6] = RP, Waters ACQUITY UPLC BEH C18, 100 × 2.1 mm, 1.7 µm, 0.1 mL/min, estimated dead time 2.2 min; A: water + 0.045% formic acid + 0.11% ammonium hydroxide, pH 7; B: methanol; gradient (min/%B) 0/5 5/5 25/95 25.1/100 35/100 35.1/5 45/5
[7] = RP, Waters ACQUITY UPLC BEH C18, 100 × 2.1 mm, 1.7 µm, 0.1 mL/min, estimated dead time 2.2 min; A: water + 0.1% formic acid, pH 3; B: methanol + 0.1% formic acid, pH 3; gradient (min/%B) 0/5 5/5 25/95 25.1/100 35/100 35.1/5 45/5; remark: listed apart in the source
[8] = RP, Waters CORTECS T3, 100 × 2.1 mm, 2.7 µm, 0.1 mL/min, estimated dead time 2.2 min; A: water + 0.1% formic acid, pH 3; B: methanol + 0.1% formic acid, pH 3; gradient (min/%B) 0/5 5/5 25/95 25.1/100 35/100 35.1/5 45/5
[9] = RP, Waters CORTECS T3, 100 × 2.1 mm, 2.7 µm, 0.2 mL/min, estimated dead time 1.1 min; A: water + 0.045% formic acid + 0.11% ammonium hydroxide, pH 7; B: methanol; gradient (min/%B) 0/5 5/5 25/95 25.1/100 35/100 35.1/5 45/5
[10] = RP, Waters CORTECS T3, 100 × 2.1 mm, 2.7 µm, 0.3 mL/min, estimated dead time 0.73 min; A: water + 0.1% formic acid, pH 3; B: methanol + 0.1% formic acid, pH 3; gradient (min/%B) 0/0 5/0 25/100 30/100 30.1/0 35/0
[11] = RP, Waters CORTECS T3, 100 × 2.1 mm, 2.7 µm, 0.25 mL/min, estimated dead time 0.88 min; A: water + 0.1% formic acid, pH 3; B: methanol + 0.1% formic acid, pH 3; gradient (min/%B) 0/0 1/0 6/5 30/100 35/100 35.1/0 40/0
[12] = HILIC, Waters XBridge BEH Amide, 100 × 2.1 mm, 2.5 µm, 0.5 mL/min, estimated dead time 0.44 min; A: water + 0.1% acetic acid + 10 mM ammonium acetate, pH 4; B: 5% water + 95% acetonitrile + 0.1% acetic acid + 10 mM ammonium acetate, pH 4; gradient (min/%B) 0/95 5/95 20/57 25/57 30/95 40/95
[13] = RP, Waters CORTECS T3, 100 × 2.1 mm, 2.7 µm, 0.3 mL/min, estimated dead time 0.73 min; A: water + 0.1% formic acid, pH 3; B: methanol + 0.1% formic acid, pH 3; gradient (min/%B) 0/5 5/5 25/95 25.1/100 35/100 35.1/5 45/5
[14] = RP, Waters ACQUITY UPLC BEH C18, 100 × 2.1 mm, 1.7 µm, 0.2 mL/min, estimated dead time 1.1 min; A: water + 0.025% formic acid + 20 mM ammonium acetate + 0.055% ammonium hydroxide, pH 7; B: methanol; gradient (min/%B) 0/5 5/5 25/100 30/100 30.1/5 35/5
[15] = RP, Waters CORTECS T3, 100 × 2.1 mm, 2.7 µm, 0.1 mL/min, estimated dead time 2.2 min; A: water + 0.1% formic acid, pH 3; B: methanol + 0.1% formic acid, pH 3; gradient (min/%B) 0/0 1/0 6/5 30/100 35/100 35.1/0 40/0
[16] = RP, Waters ACQUITY UPLC BEH C18, 100 × 2.1 mm, 1.7 µm, 0.1 mL/min, estimated dead time 2.2 min; A: water + 0.1% formic acid, pH 3; B: methanol + 0.1% formic acid, pH 3; gradient (min/%B) 0/5 5/5 25/100 30/100 30.1/5 35/5
[17] = HILIC, Merck SeQuant ZIC-HILIC, 150 × 2.1 mm, 5 µm, 0.75 mL/min, estimated dead time 0.44 min; A: water + 10 mM ammonium formate, pH 6; B: 5% water + 95% acetonitrile + 10 mM ammonium formate, pH 6; gradient (min/%B) 0/95 5/95 20/57 25/57 30/95 40/95
[18] = RP, Waters CORTECS T3, 100 × 2.1 mm, 2.7 µm, 0.3 mL/min, estimated dead time 0.73 min; A: water + 0.1% formic acid, pH 3; B: methanol + 0.1% formic acid, pH 3; gradient (min/%B) 0/0 1/0 6/5 30/100 35/100 35.1/0 40/0
[19] = RP, Waters ACQUITY UPLC BEH C18, 100 × 2.1 mm, 1.7 µm, 0.2 mL/min, estimated dead time 1.1 min; A: water + 0.1% formic acid, pH 3; B: methanol + 0.1% formic acid, pH 3; gradient (min/%B) 0/5 5/5 25/100 30/100 30.1/5 35/5
[20] = RP, Waters CORTECS T3, 100 × 2.1 mm, 2.7 µm, 0.2 mL/min, estimated dead time 1.1 min; A: water + 0.1% formic acid, pH 3; B: methanol + 0.1% formic acid, pH 3; gradient (min/%B) 0/0 1/0 6/5 30/100 35/100 35.1/0 40/0; remark: listed apart in the source
[21] = RP, Waters ACQUITY UPLC BEH C18, 100 × 2.1 mm, 1.7 µm, 0.2 mL/min, estimated dead time 1.1 min; A: water + 0.025% formic acid + 20 mM ammonium acetate + 0.055% ammonium hydroxide, pH 7; B: methanol; gradient (min/%B) 0/5 5/5 25/100 30/100 30.1/5 35/5; remark: listed apart in the source
[22] = RP, Waters CORTECS T3, 100 × 2.1 mm, 2.7 µm, 0.25 mL/min, estimated dead time 0.88 min; A: water + 0.1% formic acid, pH 3; B: methanol + 0.1% formic acid, pH 3; gradient (min/%B) 0/5 5/5 25/95 25.1/100 35/100 35.1/5 45/5
[23] = RP, Waters ACQUITY UPLC BEH C18, 100 × 2.1 mm, 1.7 µm, 0.1 mL/min, estimated dead time 2.2 min; A: water + 0.1% formic acid, pH 3; B: methanol + 0.1% formic acid, pH 3; gradient (min/%B) 0/5 5/5 25/95 25.1/100 35/100 35.1/5 45/5; remark: listed apart in the source
[24] = RP, Waters CORTECS T3, 100 × 2.1 mm, 2.7 µm, 0.3 mL/min, estimated dead time 0.73 min; A: water + 0.1% formic acid, pH 3; B: methanol + 0.1% formic acid, pH 3; gradient (min/%B) 0/0 5/0 25/100 30/100 30.1/0 35/0; remark: listed apart in the source
[25] = RP, Waters CORTECS T3, 100 × 2.1 mm, 2.7 µm, 0.2 mL/min, estimated dead time 1.1 min; A: water + 0.1% formic acid, pH 3; B: methanol + 0.1% formic acid, pH 3; gradient (min/%B) 0/5 5/5 25/95 25.1/100 35/100 35.1/5 45/5
[26] = RP, Waters CORTECS T3, 100 × 2.1 mm, 2.7 µm, 0.3 mL/min, estimated dead time 0.73 min; A: water + 0.1% formic acid, pH 3; B: methanol + 0.1% formic acid, pH 3; gradient (min/%B) 0/0 1/0 6/5 30/100 35/100 35.1/0 40/0; remark: listed apart in the source
[27] = RP, Thermo Scientific Hypercarb, 150 × 2.1 mm, 5 µm, 0.1 mL/min, estimated dead time 3.3 min; A: water + 0.1% formic acid, pH 3; B: methanol + 0.1% formic acid, pH 3; gradient (min/%B) 0/5 5/5 20/100 35/100 35.1/5 45/5

CSCC1OC(n2cnc3c(N)ncnc32)C(O)C1O (stereo not given) [5'-METHYLTHIOADENOSINE]
LC retention time [1]: 8.5 min
LC retention time [2]: 13.1 min
LC retention time [3]: 1.23 min
LC retention time [4]: 11.3 min
LC retention time [5]: 12.6 min
LC retention time [6]: 15.4 min
LC retention time [7]: 13.1 min
LC retention time [8]: 13 min
LC retention time [9]: 12.3 min
LC retention time [10]: 9.9 min
LC retention time [11]: 10.7 min
LC retention time [12]: 1.61 min
LC retention time [13]: 8.59 min
LC retention time [14]: 12.1 min
LC retention time [15]: 9.84 min
LC retention time [16]: 12.9 min
LC retention time [17]: 1.29 min
LC retention time [18]: 10.1 min

Cc1cc2nc3[nH]c(=O)[nH]c(=O)c3nc2cc1C [LUMICHROME]
LC retention time [19]: 16 min
LC retention time [1]: 14.6 min
LC retention time [20]: 18.3 min
LC retention time [21]: 13.1 min
LC retention time [2]: 19.6 min
LC retention time [4]: 18.3 min
LC retention time [5]: 19.6 min
LC retention time [6]: 19.5 min
LC retention time [7]: 19.6 min
LC retention time [8]: 19.6 min
LC retention time [9]: 16.4 min
LC retention time [10]: 15.3 min
LC retention time [11]: 17.5 min
LC retention time [22]: 15.5 min
LC retention time [13]: 15 min
LC retention time [14]: 16 min
LC retention time [15]: 16.3 min
LC retention time [16]: 19.1 min
LC retention time [23]: 19.6 min

Nc1ccn(C2OC(CO)C3OP(=O)([O-])OC32)c(=O)n1 (stereo not given) [CYTIDINE 2',3'-CYCLIC MONOPHOSPHATE]
LC retention time [19]: 1.34 min
LC retention time [20]: 1.35 min
LC retention time [21]: 1.36 min
LC retention time [2]: 2.72 min
LC retention time [3]: 12.1 min
LC retention time [4]: 1.34 min
LC retention time [5]: 1.78 min
LC retention time [7]: 2.66 min
LC retention time [24]: 0.89 min
LC retention time [10]: 0.89 min
LC retention time [11]: 1.09 min
LC retention time [16]: 2.74 min
LC retention time [23]: 2.67 min

Nc1nc2c(ncn2C2OC3COP(=O)(O)OC3C2O)c(=O)[nH]1 (stereo not given) [GUANOSINE 3',5'-CYCLIC MONOPHOSPHATE]
LC retention time [25]: 11.1 min
LC retention time [19]: 3.76 min
LC retention time [26]: 5.71 min
LC retention time [1]: 2.67 min
LC retention time [20]: 7.35 min
LC retention time [21]: 1.41 min
LC retention time [2]: 2.72 min
LC retention time [3]: 12.3 min
LC retention time [4]: 7.21 min
LC retention time [5]: 9.04 min
LC retention time [7]: 6.68 min
LC retention time [8]: 7.41 min
LC retention time [24]: 6.99 min
LC retention time [11]: 6.2 min
LC retention time [22]: 3.22 min
LC retention time [12]: 12.3 min
LC retention time [13]: 2.59 min
LC retention time [15]: 3.77 min
LC retention time [16]: 7.01 min
LC retention time [23]: 7.13 min
LC retention time [18]: 5.42 min

Cn1cnc2c(ncn2C2OC(CO)C(O)C2O)c1=N (stereo not given) [1-METHYLADENOSINE]
LC retention time [1]: 5.02 min
LC retention time [2]: 2.66 min
LC retention time [3]: 1.51 min
LC retention time [4]: 9.42 min
LC retention time [5]: 10.7 min
LC retention time [6]: 13.5 min
LC retention time [7]: 10.6 min
LC retention time [8]: 10.9 min
LC retention time [9]: 10.7 min
LC retention time [10]: 8.57 min
LC retention time [11]: 8.69 min
LC retention time [27]: 21.8 min
LC retention time [12]: 2.22 min
LC retention time [13]: 4.96 min
LC retention time [14]: 10.5 min
LC retention time [15]: 7.08 min
LC retention time [16]: 10.5 min
LC retention time [17]: 1.56 min
LC retention time [18]: 8.04 min
